Measurements: patent US12071441B2, “10-(di(phenyl)methyl)-4-hydroxy-8,9,9A,10-tetrahydro-7H-pyrrolo[1′,2′:4,5]pyrazino[1,2-b]pyridazine-3,5-dione derivatives and related compounds as inhibitors of the orthomyxovirus replication for treating influenza” (Novartis AG, priority 2018, dated 2024)

Legend:
Experiment in all cases: microbe, parasite or virus in culture
Format in all cases: cell-based
[1] = system: influenza A virus minigenome (PB2, PB1, PA, NP; luciferase reporter) in 293T cells, RNP_Alaska; details: HEK-293T, 48 h
[2] = system: influenza A virus minigenome (PB2, PB1, PA, NP; luciferase reporter) in 293T cells, RNP_CAL; details: HEK-293T, 48 h, read-out: RNP_CAL_EC50
[3] = system: influenza A virus minigenome (PB2, PB1, PA, NP; luciferase reporter) in 293T cells, RNP_Hubei; details: HEK-293T, 48 h

Measured: EC50

CCC(=O)Oc1c2n(ncc1=O)[C@@H]([C@H](c1cccc(F)c1)c1cccc(F)c1F)[C@H]1CCCN1C2=O [Example 106, (9aR,10S)-10-((R)-(2,3-difluorophenyl)(3-fluorophenyl)methyl)-3,5-dioxo-3,5,8,9,9a,10-hexahydro-7H-pyrrolo[1′,2′:4,5]pyrazino[1,2-b]pyridazin-4-yl propionate]
< 100 nM: all assays above

CC(C)C(=O)Oc1c2n(ncc1=O)[C@@H]([C@H](c1cccc(F)c1)c1cccc(F)c1F)[C@H]1CCCN1C2=O [Example 107, (9aR,10S)-10-((R)-(2,3-difluorophenyl)(3-fluorophenyl)methyl)-3,5-dioxo-3,5,8,9,9a,10-hexahydro-7H-pyrrolo[1′,2′:4,5]pyrazino[1,2-b]pyridazin-4-yl isobutyrate]
< 100 nM: all assays above

CC(C)C(=O)OCOc1c2n(ncc1=O)[C@@H]([C@H](c1cccc(F)c1)c1cccc(F)c1F)[C@H]1CCCN1C2=O [Example 108, (((9aR,10S)-10-((R)-(2,3-difluorophenyl)(3-fluorophenyl)methyl)-3,5-dioxo-3,5,8,9,9a,10-hexahydro-7H-pyrrolo[1′,2′:4,5]pyrazino[1,2-b]pyridazin-4-yl)oxy)methyl isobutyrate]
< 100 nM: all assays above

CC(C)CC(=O)Oc1c2n(ncc1=O)[C@@H]([C@H](c1cccc(F)c1)c1cccc(F)c1F)[C@H]1CCCN1C2=O [Example 110, (9aR,10S)-10-((R)-(2,3-difluorophenyl)(3-fluorophenyl)methyl)-3,5-dioxo-3,5,8,9,9a,10-hexahydro-7H-pyrrolo[1′,2′:4,5]pyrazino[1,2-b]pyridazin-4-yl 3-methylbutanoate]
< 100 nM: all assays above

COCCC(=O)Oc1c2n(ncc1=O)[C@@H]([C@H](c1cccc(F)c1)c1cccc(F)c1F)[C@H]1CCCN1C2=O [Example 112, (9aR,10S)-10-((R)-(2,3-difluorophenyl)(3-fluorophenyl)methyl)-3,5-dioxo-3,5,8,9,9a,10-hexahydro-7H-pyrrolo[1′,2′:4,5]pyrazino[1,2-b]pyridazin-4-yl 3-methoxypropanoate]
< 100 nM: all assays above

CC(=O)OCOc1c2n(ncc1=O)[C@@H]([C@H](c1cccc(F)c1)c1cccc(F)c1F)[C@H]1CCCN1C2=O [Example 114, (((9aR,10S)-10-((R)-(2,3-difluorophenyl)(3-fluorophenyl)methyl)-3,5-dioxo-3,5,8,9,9a,10-hexahydro-7H-pyrrolo[1′,2′:4,5]pyrazino[1,2-b]pyridazin-4-yl)oxy)methyl acetate]
< 100 nM: all assays above

COC(=O)Oc1c2n(ncc1=O)[C@@H]([C@H](c1cccc(F)c1)c1cccc(F)c1F)[C@H]1CCCN1C2=O [Example 115, (9aR,10S)-10-((R)-(2,3-difluorophenyl)(3-fluorophenyl)methyl)-3,5-dioxo-3,5,8,9,9a,10-hexahydro-7H-pyrrolo[1′,2′:4,5]pyrazino[1,2-b]pyridazin-4-yl methyl carbonate]
< 100 nM: all assays above

Cc1oc(=O)oc1COc1c2n(ncc1=O)[C@@H]([C@H](c1cccc(F)c1)c1cccc(F)c1F)[C@H]1CCCN1C2=O [Example 116, (9aR,10S)-10-((R)-(2,3-difluorophenyl)(3-fluorophenyl)methyl)-4-((5-methyl-2-oxo-1,3-dioxol-4-yl)methoxy)-8,9,9a,10-tetrahydro-7H-pyrrolo[1′,2′:4,5]pyrazino[1,2-b]pyridazine-3,5-dione]
< 100 nM: all assays above
